# Patent US7807828B2, “Olanzapine analogs and methods of use thereof” (Hypnion, Inc., priority 2005, dated 2010)
# Read-outs that look alike come from different tables or passages of the source.
# Tests used:
# [1] = target: T1, human recombinant M1 expressed in CHO cells (Homo sapiens, UniProt P11229); conditions: reference compounds; read-out: Ki of reference compounds in the M1 binding assay; cited from earlier work
# T1 construct: purchased PerkinElmer, Inc., Wellesley, Mass; host or cells: CHO cells
# T1 sequence (P11229 1-460): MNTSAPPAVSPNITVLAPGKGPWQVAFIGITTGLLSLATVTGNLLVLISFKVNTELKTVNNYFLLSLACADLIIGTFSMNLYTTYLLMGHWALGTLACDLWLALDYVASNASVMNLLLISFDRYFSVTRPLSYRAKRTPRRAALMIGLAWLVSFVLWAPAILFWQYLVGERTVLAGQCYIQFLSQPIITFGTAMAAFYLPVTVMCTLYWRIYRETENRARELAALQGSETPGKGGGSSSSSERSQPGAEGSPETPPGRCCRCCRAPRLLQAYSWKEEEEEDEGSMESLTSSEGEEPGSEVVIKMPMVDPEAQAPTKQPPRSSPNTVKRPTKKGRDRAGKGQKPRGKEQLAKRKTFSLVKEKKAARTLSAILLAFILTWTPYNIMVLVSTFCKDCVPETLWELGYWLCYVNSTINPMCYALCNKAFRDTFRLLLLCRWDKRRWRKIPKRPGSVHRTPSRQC
# [2] = target: T2, human recombinant M3 expressed in CHO cells (Homo sapiens, UniProt P20309); experiment: M3 muscarinic receptor binding assay; conditions: Table 7A, third line of column M1 M2 M3
# T2 construct: purchased PerkinElmer, Inc., Wellesley, Mass; host or cells: CHO cells
# [3] = target: T3, histamine H1 receptor (bovine) (Bos taurus, UniProt P30546); experiment: Histamine H1 binding assay, bovine cerebellar membranes, [3H]pyrilamine; conditions: Table 7A; Ki in nM
# T3 construct: the receptors were obtained from bovine cerebellar membrane tissue; from tissue; host or cells: bovine cerebellar membranes
# [4] = target: T1, human recombinant M1 expressed in CHO cells; experiment: M1 muscarinic receptor binding assay; conditions: Table 7A, first line of column M1 M2 M3
# [5] = target: T4, human recombinant M2 expressed in CHO cells (Homo sapiens, UniProt P08172); experiment: M2 muscarinic receptor binding assay; conditions: Table 7A, M1 M2 M3
# T4 construct: purchased PerkinElmer, Inc., Wellesley, Mass; host or cells: CHO cells
# T4 sequence (P08172 1-466): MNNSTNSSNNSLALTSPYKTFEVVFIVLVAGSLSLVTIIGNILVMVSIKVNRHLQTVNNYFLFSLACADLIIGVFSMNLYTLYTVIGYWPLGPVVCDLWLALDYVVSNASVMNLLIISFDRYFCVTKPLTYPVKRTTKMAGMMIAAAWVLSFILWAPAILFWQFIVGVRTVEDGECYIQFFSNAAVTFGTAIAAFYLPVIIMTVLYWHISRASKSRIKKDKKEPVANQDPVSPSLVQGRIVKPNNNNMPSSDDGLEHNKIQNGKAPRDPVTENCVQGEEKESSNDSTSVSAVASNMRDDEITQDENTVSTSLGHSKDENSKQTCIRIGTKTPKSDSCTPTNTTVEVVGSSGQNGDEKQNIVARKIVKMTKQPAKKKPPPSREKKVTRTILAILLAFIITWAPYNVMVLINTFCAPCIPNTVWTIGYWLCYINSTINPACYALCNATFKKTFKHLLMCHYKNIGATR
# adult, male Wistar rats = experiment: Sleep-wakefulness monitoring (SCORE-2000, EEG/EMG) in rats; format: in vivo, rat; conditions: minutes; for LONGEST UNINTERRUPTED SLEEP BOUT 10 mg/kg / NREM CUMULATION 10 mg/kg: oral bolus at CT-18, 10 mg/kg; for LONGEST UNINTERRUPTED SLEEP BOUT 30 mg/kg / NREM CUMULATION 30 mg/kg: oral bolus at CT-18, 30 mg/kg
# Method: Sleep-wakefulness, locomotor activity and body temperature are monitored in male Wistar rats treated with a test compound (i.e., olanzapine analog) initially at a concentration of 10 mg/kg. Higher and lower doses are assayed for select compounds (e.g., as high as 45 mg/kg, and as low as necessary to establish a no-effect dose). Treatments are administered at CT-18, the peak of the activity dominated period (6 hours after lights-off), and produced soporific (sleep-inducing) effects characterized by increased non-REM sleep time, increased sleep continuity, but without evidence of REM sleep inhibition or rebound insomnia.
# Sleep-wakefulness, locomotor activity and body temperature were monitored in vivo with various compounds of the invention. Adult, male Wistar rats (250 g at time of surgery, Charles River Laboratories, Wilmington Mass.) were anesthetized (2% isoflourane in medical grade oxygen) and surgically prepared with a cranial implant to permit chronic electro-encephalogram (EEG) and electromyogram (EMG) recording. Body temperature and locomotor activity were monitored via a miniature transmitter (Mini-Mitter, Bend, Oreg.) surgically placed in the abdomen. The cranial implant consisted of stainless steel screws (two frontal (+3.2 AP from bregma, ±2.0 ML) and two occipital (−6.9 AP, ±5.5 ML)) for EEG recording. Two Teflon®-coated stainless steel wires were positioned under the nuchal trapezoid muscles for EMG recording. All leads were soldered to a miniature connector prior to surgery, and gas sterilized in ethylene oxide. The implant assembly was affixed to the skull with dental acrylic. A minimum of three weeks was allowed for surgical recovery.
# Each rat was permanently housed in its own individual recording cage located within separate, ventilated compartments of custom-designed stainless steel cabinets. Each cage was enhanced with a filter-top riser and low-torque swivel-commutator. Food and water were available ad libitum. A 24-hr light-dark cycle (12 hours light, 12 hours dark) was maintained throughout the study. Animals were undisturbed for at least 48 hours before and after treatments.
# Sleep and wakefulness were determined using “SCORE-2000™” (Hypnion, Worcester, Mass.)—an internet-based sleep-wake and physiological monitoring system. The system monitored amplified EEG (bandpass 1-30 Hz), integrated EMG (bandpass 10-100 Hz), body temperature and non-specific locomotor activity (LMA) via telemetry, and drinking activity, continuously and simultaneously. Arousal states were classified on-line as non-REM (NREM) sleep, REM sleep, wake, or theta-dominated wake every 10 seconds. Total drinking and locomotor activity counts, and body temperature were quantitiated and recorded each minute, using EEG feature extraction and pattern-matching algorithms. […] The classification algorithm used individually-taught EEG-arousal-state templates, plus EMG criteria to differentiate REM sleep from theta-dominated wakefulness, plus behavior-dependent contextual rules (e.g., if the animal was drinking, it is awake). Drinking and locomotor activity intensity (LMA) were recorded every 10 seconds, while body temperature was recorded each minute. Locomotor activity was detected by a telemetry receiver (Mini-Mitter) beneath the cage. Telemetry measures (LMA and body temperature) were not part of the scoring algorithm; thus, sleep-scoring and telemetry data were independent measures.
# Compounds were administered at CT-18, the peak of the activity-dominated period, sufficient time was allowed to view the time course of the treatment effect before lights-on (6 hours post-treatment). Compounds were suspended in sterile 0.25% or 0.5% methylcellulose (1-2 ml/kg). Treatments were administered orally as a bolus.
# A parallel group study design was employed. […]
# 5HT2a (rat) = 5HT2a (rat) (Rattus norvegicus, UniProt P14842); experiment: 5HT2a (rat) binding assay; conditions: Table 7A; unit inferred
# 5HT2a (hctx) = target: T5, 5HT2a (hctx) (Homo sapiens, UniProt P28223); experiment: 5HT2a (hctx) binding assay; conditions: Table 7B; unit inferred
# T5 construct: (hctx); from tissue; host or cells: human cortex (my reading of 'hctx')
# D2 (h) = D2 (h) (Homo sapiens, UniProt P14416); experiment: Dopamine D2 binding assay; conditions: Table 7A; unit inferred
# D1 (h) = D1 (h) (Homo sapiens, UniProt P21728); experiment: Dopamine D1 (human recombinant) binding assay; conditions: Table 7A; unit inferred
# Method: Dopamine, D1 (human recombinant) binding assay was performed according to published procedures. See, e.g., Jarvie, et al. J. Recept Res., 13(1-4): 573-90 (1993); and Billard, et al. Life Sciences, 35(18): 1885-93 (1984), with modifications
# H1 (hr) = target: T6, H1 (hr) (Homo sapiens, UniProt P35367); experiment: H1 (hr) Novascreen binding assay; conditions: Table 7A; Ki in nM
# T6 construct: Novascreen, MDS, Cerep (assay providers)
# Method: Binding assays were performed using various sleep-inducing agents and derivatives selected from those listed in Table 1 in competitive binding assays with known standards for the H1 histamine receptor, and the M1, M2, and M3 muscarinic receptors, alpha 1 and alpha 2 receptors, D1 and D2 receptors, 5HT2a, 5HT2b, 5HT2c, 5HT2c, and 5HT7 receptors.
# The histamine H1 assays are described in Chang, et al., Heterogeneity of Histamine H1-Receptors: Species Variation in [^3H]Mepyramine Binding of Brain Membranes. Journal of Neurochemistry. 32: 1653-1663 (1979); Martinez-Mir, M. I., Pollard, H., Moreau, J., et al. Three Histamine Receptors (H1, H2, and H3) Visualized in the Brain of Human and Non-Human Primates. Brain Res. 526: 322-327 (1990); Haaksma, E. E. J., Leurs, R. and Timmerman, H. Histamine Receptors: Subclasses and Specific Ligands. Pharmac. Ther. 47: 73-104 (1990). The muscarinic assays are described in Buckley, N. J., Bonner, T. I., Buckley, C. M., and Brann, M. R. Antagonist Binding Properties of Five Cloned Muscarinic Receptors Expressed in CHO-K1 Cells. Mol. Pharmacol. 35: 469-476 (1989). The assays were performed according to the preceding articles, with the following modifications. Chemical reagents in the following were obtained from Sigma, St. Louis, Mo.
# 5HT2b (h) = 5HT2b (h) (Homo sapiens, UniProt P41595); experiment: 5HT2b (h) binding assay; conditions: Table 7B; unit inferred
# 5HT2b (h), sequence (P41595 whole entry): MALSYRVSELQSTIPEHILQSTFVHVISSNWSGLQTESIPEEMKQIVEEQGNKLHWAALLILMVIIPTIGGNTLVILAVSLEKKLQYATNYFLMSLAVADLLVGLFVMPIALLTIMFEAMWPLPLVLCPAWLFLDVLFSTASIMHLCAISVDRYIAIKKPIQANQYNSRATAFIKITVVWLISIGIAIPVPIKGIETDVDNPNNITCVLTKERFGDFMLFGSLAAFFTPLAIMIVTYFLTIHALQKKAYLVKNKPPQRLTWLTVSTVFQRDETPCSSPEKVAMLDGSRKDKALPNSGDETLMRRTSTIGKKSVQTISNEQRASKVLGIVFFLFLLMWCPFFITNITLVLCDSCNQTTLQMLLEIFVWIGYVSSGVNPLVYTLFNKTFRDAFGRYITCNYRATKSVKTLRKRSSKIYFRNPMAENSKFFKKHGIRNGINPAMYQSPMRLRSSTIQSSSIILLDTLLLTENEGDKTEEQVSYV
# D2 (h), sequence (P14416 whole entry): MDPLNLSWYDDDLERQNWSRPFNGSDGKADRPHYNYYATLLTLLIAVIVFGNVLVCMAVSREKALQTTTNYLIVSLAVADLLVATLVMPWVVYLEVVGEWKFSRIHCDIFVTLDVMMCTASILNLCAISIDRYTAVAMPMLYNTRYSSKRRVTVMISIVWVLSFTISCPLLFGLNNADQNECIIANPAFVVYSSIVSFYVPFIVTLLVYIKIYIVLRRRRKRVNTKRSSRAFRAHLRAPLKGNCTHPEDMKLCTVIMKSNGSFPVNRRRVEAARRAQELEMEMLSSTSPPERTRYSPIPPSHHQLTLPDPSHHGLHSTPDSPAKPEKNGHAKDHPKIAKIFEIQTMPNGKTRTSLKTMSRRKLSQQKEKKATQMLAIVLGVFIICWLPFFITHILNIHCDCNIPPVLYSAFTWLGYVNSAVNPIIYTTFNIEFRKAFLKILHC
# T2 sequence (P20309 whole entry): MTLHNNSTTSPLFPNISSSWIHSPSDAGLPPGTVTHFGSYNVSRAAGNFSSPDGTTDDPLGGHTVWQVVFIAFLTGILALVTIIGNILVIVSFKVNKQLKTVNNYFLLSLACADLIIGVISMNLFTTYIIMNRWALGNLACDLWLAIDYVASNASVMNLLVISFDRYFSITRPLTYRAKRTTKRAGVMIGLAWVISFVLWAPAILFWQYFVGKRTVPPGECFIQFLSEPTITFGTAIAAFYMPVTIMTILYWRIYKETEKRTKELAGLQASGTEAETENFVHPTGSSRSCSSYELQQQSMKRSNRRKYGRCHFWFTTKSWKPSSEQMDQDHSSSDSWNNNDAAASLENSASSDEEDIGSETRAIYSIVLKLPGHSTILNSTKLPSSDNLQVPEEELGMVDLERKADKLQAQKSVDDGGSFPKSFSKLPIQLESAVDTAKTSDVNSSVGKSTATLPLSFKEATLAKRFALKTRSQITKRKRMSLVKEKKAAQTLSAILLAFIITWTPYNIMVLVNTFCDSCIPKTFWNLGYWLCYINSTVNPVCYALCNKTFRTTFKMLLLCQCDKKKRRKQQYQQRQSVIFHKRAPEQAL
# T3 sequence (P30546 whole entry): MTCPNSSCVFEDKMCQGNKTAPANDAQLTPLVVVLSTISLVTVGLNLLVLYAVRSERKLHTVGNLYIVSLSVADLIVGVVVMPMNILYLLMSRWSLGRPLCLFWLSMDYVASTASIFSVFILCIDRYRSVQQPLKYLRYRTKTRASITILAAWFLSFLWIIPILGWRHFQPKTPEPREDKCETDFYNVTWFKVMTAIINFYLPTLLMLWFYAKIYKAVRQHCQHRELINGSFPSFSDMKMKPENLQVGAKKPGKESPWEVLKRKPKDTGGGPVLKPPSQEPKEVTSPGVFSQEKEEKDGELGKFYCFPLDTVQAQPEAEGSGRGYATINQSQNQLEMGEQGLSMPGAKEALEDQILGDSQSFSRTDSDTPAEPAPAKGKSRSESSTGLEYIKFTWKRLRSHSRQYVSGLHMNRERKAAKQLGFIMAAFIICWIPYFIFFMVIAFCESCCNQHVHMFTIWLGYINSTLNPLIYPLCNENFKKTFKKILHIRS
# T5 sequence (P28223 whole entry): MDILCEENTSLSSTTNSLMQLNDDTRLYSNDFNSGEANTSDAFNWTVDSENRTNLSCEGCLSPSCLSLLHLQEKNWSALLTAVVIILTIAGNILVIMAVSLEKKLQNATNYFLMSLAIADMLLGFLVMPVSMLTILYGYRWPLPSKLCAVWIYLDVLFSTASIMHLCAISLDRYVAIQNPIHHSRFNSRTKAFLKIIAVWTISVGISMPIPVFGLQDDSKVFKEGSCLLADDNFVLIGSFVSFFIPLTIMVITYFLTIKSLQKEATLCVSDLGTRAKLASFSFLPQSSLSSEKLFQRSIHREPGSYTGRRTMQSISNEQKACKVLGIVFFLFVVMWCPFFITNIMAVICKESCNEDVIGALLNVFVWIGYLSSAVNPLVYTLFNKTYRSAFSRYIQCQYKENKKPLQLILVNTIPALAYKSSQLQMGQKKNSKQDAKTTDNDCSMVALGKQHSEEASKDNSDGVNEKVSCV
# T6 sequence (P35367 whole entry): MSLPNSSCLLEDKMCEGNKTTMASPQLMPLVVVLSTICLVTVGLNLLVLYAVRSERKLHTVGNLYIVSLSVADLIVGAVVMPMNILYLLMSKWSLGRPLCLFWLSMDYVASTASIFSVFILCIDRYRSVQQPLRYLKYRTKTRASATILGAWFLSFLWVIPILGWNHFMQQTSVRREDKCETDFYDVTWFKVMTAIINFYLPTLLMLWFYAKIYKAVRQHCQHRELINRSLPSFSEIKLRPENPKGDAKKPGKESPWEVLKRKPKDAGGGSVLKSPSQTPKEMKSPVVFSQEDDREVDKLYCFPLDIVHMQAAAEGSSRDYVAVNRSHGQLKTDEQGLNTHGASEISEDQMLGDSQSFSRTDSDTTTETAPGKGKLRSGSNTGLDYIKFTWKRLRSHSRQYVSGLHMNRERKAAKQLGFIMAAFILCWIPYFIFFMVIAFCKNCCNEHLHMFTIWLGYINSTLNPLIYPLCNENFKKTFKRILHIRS
# 5HT2a (rat), sequence (P14842 whole entry): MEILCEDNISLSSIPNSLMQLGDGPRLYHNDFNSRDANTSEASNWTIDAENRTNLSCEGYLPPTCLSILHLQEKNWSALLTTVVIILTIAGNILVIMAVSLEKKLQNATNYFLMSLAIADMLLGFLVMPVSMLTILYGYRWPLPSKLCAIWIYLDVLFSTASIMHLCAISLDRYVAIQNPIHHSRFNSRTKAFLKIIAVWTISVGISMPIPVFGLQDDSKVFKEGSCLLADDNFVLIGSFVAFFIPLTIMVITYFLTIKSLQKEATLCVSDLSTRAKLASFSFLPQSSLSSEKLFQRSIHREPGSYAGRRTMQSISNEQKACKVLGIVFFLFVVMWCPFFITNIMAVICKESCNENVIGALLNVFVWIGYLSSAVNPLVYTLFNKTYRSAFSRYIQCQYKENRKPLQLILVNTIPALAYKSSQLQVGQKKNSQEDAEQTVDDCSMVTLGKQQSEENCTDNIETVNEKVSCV
# D1 (h), sequence (P21728 whole entry): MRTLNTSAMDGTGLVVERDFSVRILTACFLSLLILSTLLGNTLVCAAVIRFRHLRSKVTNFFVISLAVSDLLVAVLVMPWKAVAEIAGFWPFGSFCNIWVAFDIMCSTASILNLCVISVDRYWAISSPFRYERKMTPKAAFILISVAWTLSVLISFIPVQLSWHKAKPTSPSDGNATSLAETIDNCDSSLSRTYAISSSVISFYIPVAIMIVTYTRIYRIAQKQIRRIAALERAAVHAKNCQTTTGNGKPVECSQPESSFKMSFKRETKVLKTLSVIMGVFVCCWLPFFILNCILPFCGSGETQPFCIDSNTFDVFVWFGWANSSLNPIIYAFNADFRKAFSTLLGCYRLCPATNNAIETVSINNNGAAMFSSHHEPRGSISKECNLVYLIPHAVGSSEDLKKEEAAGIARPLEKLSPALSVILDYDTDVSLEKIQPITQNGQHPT
Compound,"LONGEST UNINTERRUPTED SLEEP BOUT 10 mg/kg (adult, male Wistar rats)","NREM CUMULATION 10 mg/kg (adult, male Wistar rats)","LONGEST UNINTERRUPTED SLEEP BOUT 30 mg/kg (adult, male Wistar rats)","NREM CUMULATION 30 mg/kg (adult, male Wistar rats)",also measured
C[N+]1(C)CCC(OC(=O)C(c2ccccc2)c2ccccc2)CC1 [4-DAMP methiodide],,,,,Ki [1]: 0.27 nM
CC(C)(CN1CCN(C2=Nc3ccccc3Nc3sccc32)CC1)C(=O)O [Compound 1],-7.0 ± 2.4 min,6 ± 6 min,4.1 ± 2.1 min,12 ± 5 min,Ki [2]: > 10000 nM; Ki [3]: 2310 nM; Ki [4]: > 10000 nM; Ki [5]: > 10000 nM
Cc1ccc2c(c1)N=C(N1CCN(CC(C)(C)C(=O)O)CC1)c1cc(C)sc1N2 [Compound 52],5.9 ± 2.3 min,25 ± 5 min,,,
Cc1cc2c(s1)Nc1ccccc1N=C2N1CCN(CC(C)(C)C(=O)NS(C)(=O)=O)CC1 [Compound 89],5.7 ± 1.8 min,14 ± 7 min,13.6 ± 2.7 min,37 ± 6 min,Ki (5HT2a (rat)): 29.5 nM; Ki (5HT2a (hctx)): 1000 nM; Ki [2]: > 10000 nM; Ki (D2 (h)): 927 nM; Ki [3]: 139 nM; Ki (D1 (h)): 6500 nM; Ki [4]: > 10000 nM; Ki [5]: > 10000 nM
Cc1cc2c(s1)Nc1ccccc1N=C2N1CCN(CCCC(=O)O)CC1 [Compound 93],-3.0 ± 2.8 min,16 ± 6 min,2.0 ± 1.5 min,10 ± 5 min,
Cc1ccc2c(c1)Nc1sc(C)cc1C(N1CCN(CC(C)(C)C(=O)O)CC1)=N2 [Compound 95],15.8 ± 5.2 min,43 ± 5 min,,,Ki (5HT2a (hctx)): 28 nM; Ki (D2 (h)): 970 nM; Ki (H1 (hr)): 200 nM; Ki (5HT2b (h)): 240 nM
Cc1ccc2c(c1)Nc1sc(C)cc1C(N1CCN(CCC(=O)O)CC1)=N2 [Compound 97],-3.6 ± 2.6 min,7 ± 3 min,,,
COc1ccc2c(c1)Nc1sc(C)cc1C(N1CCN(CC(C)(C)C(=O)O)CC1)=N2 [Compound 98],-6.2 ± 2.7 min,12 ± 7 min,,,
Cc1cc2c(s1)Nc1cc(F)ccc1N=C2N1CCN(CC(C)(C)C(=O)O)CC1 [Compound 101],5.9 ± 2.4 min,51 ± 8 min,,,
